Data taken from ChEMBL document CHEMBL1158198, “Indole Alkaloids of Haplophyton crooksii 1” (J Nat Prod, 1996).

These molecules were tested against Acetylcholinesterase (Electrophorus electricus, UniProt O42275) (assay: Inhibition of electric eel AChE).
Sequence of Acetylcholinesterase (O42275 whole entry): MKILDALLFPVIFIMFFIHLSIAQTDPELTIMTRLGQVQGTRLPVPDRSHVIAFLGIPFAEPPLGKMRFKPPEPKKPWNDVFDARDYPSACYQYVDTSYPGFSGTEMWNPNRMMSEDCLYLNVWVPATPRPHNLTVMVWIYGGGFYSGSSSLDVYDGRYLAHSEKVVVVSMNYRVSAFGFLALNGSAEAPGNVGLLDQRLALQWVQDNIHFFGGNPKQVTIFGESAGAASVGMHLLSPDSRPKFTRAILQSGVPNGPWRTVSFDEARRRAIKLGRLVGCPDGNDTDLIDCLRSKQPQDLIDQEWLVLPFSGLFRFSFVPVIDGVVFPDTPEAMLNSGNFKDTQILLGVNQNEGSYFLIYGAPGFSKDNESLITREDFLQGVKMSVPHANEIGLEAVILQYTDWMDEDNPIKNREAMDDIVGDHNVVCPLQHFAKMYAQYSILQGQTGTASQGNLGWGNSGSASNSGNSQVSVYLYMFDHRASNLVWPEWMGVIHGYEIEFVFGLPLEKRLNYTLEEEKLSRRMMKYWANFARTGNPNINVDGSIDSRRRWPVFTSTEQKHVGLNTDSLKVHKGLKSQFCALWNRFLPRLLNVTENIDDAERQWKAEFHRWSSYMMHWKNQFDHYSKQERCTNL

Structure (SMILES)	IC50 [µM]
C/C=C1/CN2CC[C@]34c5cccc(OC)c5N[C@H]3C[C@H]1C[C@H]24	57
C/C=C1\CN2[C@H]3C[C@H]1C(C(=O)OC)[C@@H]2Cc1c3n(C)c2ccc(OC)cc12 (some centres not stated)	135
C/C=C1/CN2CC[C@]34C(=C(C(=O)OC)[C@H]1C[C@H]23)Nc1ccccc14 [AKUAMMICINE]	221
C/C=C1/CN2[C@H]3Cc4c([nH]c5ccccc45)[C@@H]2C[C@@H]1[C@]3(CO)C(=O)OC [AKUAMMIDINE]	188
CCC(=O)N1c2c(ccc(OC)c2O)[C@]23CCN4CCC[C@@]5(CC[C@@H]12)CC(=O)O[C@@]453 [CIMICIDINE]	197
CCC(=O)N1c2c(O)cccc2[C@]23CCN4CCC[C@@]5(CC[C@@H]12)CC(=O)O[C@@]453 [CIMICINE]	241
CC[C@@H]1CCCN(CCc2c(C(C)=O)[nH]c3ccccc23)C1 [CROOKSIDINE]	175
CCc1[nH]c2ccccc2c1CCN1CCCC(CC)C1 (configuration not stated) [DECARBOMETHOXYTETRAHYDROSECODINE]	203
COc1c([C@@]23CCN(C)[C@]4(CCC(=O)N4c4c(O)cccc42)C3=O)cc2c(c1OC)N(C)[C@@H]1C=C[C@@]34CCCN5CC[C@@]21[C@]53OC(=O)C4 [HAPLOPHYTINE]	225
C/C=C1/CN2CC[C@@]34c5ccccc5N(C)[C@H]5O[C@]3(O)[C@@H]2C[C@@H]1[C@]54C(=O)OC [LANCEOMAGINE]	383
CC[C@H]1[C@@H]2CCN3CC[C@@]4(C(=C2C(=O)OC)Nc2ccccc24)[C@@H]13 [TUBOTAIWINE]	108
COC(=O)[C@@H]1[C@H]2C[C@H]3c4[nH]c5ccccc5c4CCN3C[C@@H]2CC[C@@H]1O [YOHIMBINE]	431
